Test results from patent US20250312345A1, “NON-COVALENT INHIBITORS OF THE MAIN PROTEASE OF SARS-COV-2 AND METHODS OF USE” (YALE UNIVERSITY, priority 2022, published 2025).
Where two headings read alike, the source gives them in different places.

Experiments:
SARS-CoV-2 M^pro = SARS-CoV-2 M^pro (Severe acute respiratory syndrome coronavirus 2, UniProt P0DTD1); assay: biochemical; format: biochemical
[1] = Thermodynamic aqueous solubility, shake-flask; format: physicochemical; conditions: 48 h
Description: The calibration and measurement (after 48 h of stirring) were performed on the same day.

SARS-CoV-2 replicon [2] = assay: microbe, parasite or virus in culture; format: cell-based; conditions: for IC50: read-out: calculated IC50, compound alone
SARS-CoV-2 replicon [3] = format: cell-based
Vero E6 cells [4] = conditions: cited from earlier work
[5] = test system: normal human bronchial epithelial cells (NHBE); conditions: cited from earlier work
PAMPA assay = conditions: PBS pH 7.4, 5% DMSO, 18 hours, room temperature
[6] = test system: normal human bronchial epithelial cells (NHBE); conditions: for CC50: human
SARS-CoV-2 replication = assay: Serum and lung tissue extracts tested on SARS-CoV-2 replication in cell culture; format: cell-based; conditions: extracts of mice dosed with compound 61
[7] = test system: panel of 35 targets including CYP450 isoforms, ions channels, receptors; assay: In vitro pharmacological profiling against targets for adverse drug reactions; conditions: percentage inhibition at 10 μM
Description: (§1) Rows represent compounds tested and columns represent targets. Percentage inhibition at 10 μM concentration of the compounds is color-coded. A panel of 35 targets including CYP450 isoforms, ions channels, receptors examined for off-target effects.

HERG ion channel = HERG ion channel (Homo sapiens, UniProt Q12809); assay: In vitro pharmacological profiling, HERG; conditions: at high concentrations
Description: as §1

Vero E6 cells [8] = conditions: African green monkey
[9] = Britton-Robinson buffer pH 6.5, shake-flask, 21-22° C.
[10] = 13 combined with remdesivir, MacSynergy II
[11] = read-out: CC50 Vero E6, Table 3, marked g: Zhang et al., ACS Cent. Sci. 2021
[12] = read-out: CC50 NHBE, Table 3, marked g: Zhang et al., ACS Cent. Sci. 2021

Chain of HERG ion channel (Q12809 whole entry): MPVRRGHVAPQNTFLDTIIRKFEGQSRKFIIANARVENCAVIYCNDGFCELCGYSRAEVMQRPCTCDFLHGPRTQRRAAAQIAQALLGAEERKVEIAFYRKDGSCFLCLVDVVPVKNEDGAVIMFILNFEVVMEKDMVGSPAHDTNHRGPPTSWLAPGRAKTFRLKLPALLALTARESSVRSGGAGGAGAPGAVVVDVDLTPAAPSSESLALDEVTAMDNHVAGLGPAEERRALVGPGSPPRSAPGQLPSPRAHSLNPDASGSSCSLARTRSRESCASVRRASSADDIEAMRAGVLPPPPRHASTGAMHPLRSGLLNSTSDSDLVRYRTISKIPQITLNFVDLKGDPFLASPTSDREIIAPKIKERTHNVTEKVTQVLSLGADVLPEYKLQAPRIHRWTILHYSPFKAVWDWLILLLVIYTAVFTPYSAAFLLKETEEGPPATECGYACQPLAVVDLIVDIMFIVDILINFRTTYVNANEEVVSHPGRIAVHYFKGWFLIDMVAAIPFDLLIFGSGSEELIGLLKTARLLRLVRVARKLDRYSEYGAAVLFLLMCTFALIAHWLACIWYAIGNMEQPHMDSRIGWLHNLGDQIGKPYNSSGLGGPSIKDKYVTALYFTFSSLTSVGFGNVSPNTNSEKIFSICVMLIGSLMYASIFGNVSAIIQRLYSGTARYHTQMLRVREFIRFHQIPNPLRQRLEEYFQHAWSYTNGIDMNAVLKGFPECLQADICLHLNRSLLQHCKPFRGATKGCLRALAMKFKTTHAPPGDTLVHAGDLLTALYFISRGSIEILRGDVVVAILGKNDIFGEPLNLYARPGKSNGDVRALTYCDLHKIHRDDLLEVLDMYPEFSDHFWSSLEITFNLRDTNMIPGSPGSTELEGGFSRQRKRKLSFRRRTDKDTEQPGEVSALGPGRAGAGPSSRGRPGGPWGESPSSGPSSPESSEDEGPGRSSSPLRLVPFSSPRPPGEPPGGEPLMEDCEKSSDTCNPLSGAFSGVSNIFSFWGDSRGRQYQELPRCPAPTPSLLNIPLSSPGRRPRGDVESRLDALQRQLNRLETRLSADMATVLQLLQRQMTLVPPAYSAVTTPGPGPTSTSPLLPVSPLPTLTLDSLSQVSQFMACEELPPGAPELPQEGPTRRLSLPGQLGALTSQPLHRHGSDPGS

Structure (SMILES): O=c1ccn(-c2cc(-c3ccccc3)c(=O)n(-c3cccnc3)c2)c(=O)[nH]1 [Cmpd 1]
- IC50 (SARS-CoV-2 M^pro; Table 4): 100 µM

Structure (SMILES): N#Cc1ccccc1-c1cc(-c2cccc(Cl)c2)c(=O)n(-c2ccc[n+]([O-])c2)c1 [Cmpd 10]
- IC50 (SARS-CoV-2 M^pro; Table 4): 15.6 ± 2.37 µM

Structure (SMILES): N#Cc1ccccc1-c1cc(-c2cc(Cl)cc(Cl)c2)c(=O)n(-c2ccc[n+]([O-])c2)c1 [Cmpd 11]
- IC50 (SARS-CoV-2 M^pro; Table 4): 5 to 20 µM

Structure (SMILES): N#Cc1cccc(-c2cc(-c3c[nH]c(=O)[nH]c3=O)cn(-c3cccnc3)c2=O)c1 [Cmpd 19]
- IC50 (SARS-CoV-2 M^pro; Table 4): ~10 µM

Structure (SMILES): COc1cc(F)cc(-c2cc(-c3c[nH]c(=O)[nH]c3=O)cn(-c3cccnc3)c2=O)c1 [Cmpd 20]
- IC50 (SARS-CoV-2 M^pro; Table 4): 10 to 100 µM

Structure (SMILES): COc1ccc(-c2cc(-c3cccc(Cl)c3)c(=O)n(-c3cccnc3)c2)c(C#N)n1 [Cmpd 22]
- IC50 (SARS-CoV-2 M^pro; Table 4): 10 to 100 µM

Structure (SMILES): N#Cc1[nH]c(=O)ccc1-c1cc(-c2cccc(Cl)c2)c(=O)n(-c2cccnc2)c1 [Cmpd 23]
- IC50 (SARS-CoV-2 M^pro; Table 4): ~10 µM

Structure (SMILES): COc1cc(CCOc2cc(Cl)cc(-c3cc(-c4ccccc4C#N)cn(-c4cccnc4)c3=O)c2)cc(OC)c1 [Cmpd 30]
- IC50 (SARS-CoV-2 M^pro; Table 4): > 1 µM

Structure (SMILES): CCNC(=O)COc1cc(Cl)cc(-c2cc(-c3ccccc3C#N)cn(-c3cccnc3)c2=O)c1 [Cmpd 33]
- IC50 (SARS-CoV-2 M^pro; Table 4): 0.5 to 1 µM

Structure (SMILES): Cc1ocnc1COc1cc(Cl)cc(-c2cc(-c3c[nH]c(=O)[nH]c3=O)cn(-c3cccnc3)c2=O)c1 [Cmpd 49]
- aq. sol. [1, 9]: 7.6 ± 0.7 µg/mL

Structure (SMILES): O=c1ccn(-c2cc(-c3cc(Cl)cc(OCC4CC4)c3)c(=O)n(-c3cccnc3)c2)c(=O)[nH]1 [Cmpd 54]
- IC50 (SARS-CoV-2 M^pro; Table 4): 1.2 ± 0.1 µM

Structure (SMILES): O=c1c(-c2cc(Cl)cc(OCC3CC3)c2)cc(-c2ccc(F)cc2F)cn1-c1cccnc1 [Cmpd 55]
- IC50 (SARS-CoV-2 M^pro; Table 4): ~10 µM

Structure (SMILES): N#Cc1ccc(F)cc1-c1cc(-c2cc(Cl)cc(OCC3CC3)c2)c(=O)n(-c2cccnc2)c1 [Cmpd 56]
- IC50 (SARS-CoV-2 M^pro; Table 4): 0.427 ± 0.027 µM

Structure (SMILES): CN(C)c1ccc(C#N)c(-c2cc(-c3cc(Cl)cc(OCC4CC4)c3)c(=O)n(-c3cccnc3)c2)c1 [Cmpd 58]
- IC50 (SARS-CoV-2 M^pro; Table 4): 1.3 ± 0.2 µM

Structure (SMILES): Cn1ccnc1COc1cc(Cl)cc(-c2cc(-c3ccccc3C#N)cn(-c3cccnc3)c2=O)c1 [Cmpd 59]
- IC50 (SARS-CoV-2 M^pro; Table 4): ~0.194 µM

Structure (SMILES): Cn1cc(-c2cc(-c3cc(Cl)cc(OCc4ocnc4C(F)(F)F)c3)c(=O)n(-c3cccnc3)c2)c(=O)[nH]c1=O [Cmpd 65]
- aq. sol. [1, 9]: 34.5 ± 0.3 µg/mL

Structure (SMILES): O=c1[nH]cc(-c2cc(-c3cc(Cl)cc(OCC4CC4)c3)c(=O)n(-c3cncc4ccccc34)c2)c(=O)[nH]1 [Cmpd 66]
- IC50 (SARS-CoV-2 M^pro; Table 4): 0.04 ± 0.002 µM

Structure (SMILES): N#Cc1ccccc1-c1cc(-c2cc(Cl)cc(Cl)c2)c(=O)n(-c2cccnc2)c1 [Compound 9, 2-(3-(3,5-Dichlorophenyl)-2-oxo-2H-[1,3′-bipyridin]-5-yl)benzonitrile]
- IC50 (SARS-CoV-2 replicon [2]; Severe acute respiratory syndrome coronavirus 2, BHK): 0.0938 µM

Structure (SMILES): CCCOc1cc(Cl)cc(-c2cc(-c3ccccc3C#N)cn(-c3cccnc3)c2=O)c1 [Compound 13, 2-(3-(3-Chloro-5-propoxyphenyl)-2-oxo-2H-[1,3′-bipyridin]-5-yl)benzonitrile]
- factor of improvement in potency over 9 (SARS-CoV-2 M^pro; IC50 of 13 versus 9): ca. 30
- mean antagonism volume (SARS-CoV-2 replicon [3]; [10]): 0 M^2%
- mean synergy volume (SARS-CoV-2 replicon [3]; [10]): 30.8 M^2%
- combination behavior with remdesivir (SARS-CoV-2 replicon [3]; range of combinations of 13 and remdesivir, FIG. 3): statistically significant synergistic behavior
- CC50 (Vero E6 cells [4]; [11]): 22 ± 7.2 µM
- CC50 [5, 12]: 20 ± 2 µM

Structure (SMILES): O=c1[nH]cc(-c2cc(-c3cc(Cl)cc(OCc4ccccc4)c3)c(=O)n(-c3cccnc3)c2)c(=O)[nH]1 [Compound 21]
- IC50 (SARS-CoV-2 M^pro; read-out: IC50 (μM), inhibition of SARS-CoV-2 M^pro, Table 1 and text, 100 nM M^pro, FRET substrate, triplicate): 0.128 µM

Structure (SMILES): N#Cc1ccccc1-c1cc(-c2cc(Cl)cc(OCC3CC3)c2)c(=O)n(-c2cccnc2)c1 [Compound 39, 2-(3-(3-Chloro-5-(cyclopropylmethoxy)phenyl)-2-oxo-2H-[1,3′-bipyridin]-5-yl)benzonitrile]
- aq. sol. [1, 9]: 3 ± 2 µg/mL
- CC50 (Vero E6 cells [4]): > 100 µM
- CC50 [5]: > 100 µM
- PAMPA permeability (PAMPA assay): 4.27 ± 0.07 10^−6 cm/s

Structure (SMILES): N#Cc1ccccc1-c1cc(-c2cc(Cl)cc(OCCC(F)(F)F)c2)c(=O)n(-c2cccnc2)c1 [Compound 47, 2-(3-(3-Chloro-5-(3,3,3-trifluoropropoxy)phenyl)-2-oxo-2H-[1,3′-bipyridin]-5-yl)benzonitrile]
- cytotoxicity towards NHBE cells [6]: more cytotoxic

Structure (SMILES): O=c1[nH]cc(-c2cc(-c3cc(Cl)cc(OCc4ccc(F)cc4Cl)c3)c(=O)n(-c3cccnc3)c2)c(=O)[nH]1 [Compound 48, 5-(3-(3-Chloro-5-((2-chloro-4-fluorobenzyl)oxy)phenyl)-2-oxo-2H-[1,3′-bipyridin]-5-yl)pyrimidine-2,4(1H,3H)-dione]
- EC50 (SARS-CoV-2 replicon [2]; Table 3): 120 ± 0.2 µM
- aq. sol. ([1]; pH 6.5): 25.0 ± 0.1 µg/mL
- CC50 (Vero E6 cells [4]): 22 ± 8 µM
- CC50 [5]: 25 ± 5 µM

Structure (SMILES): Cn1cc(-c2cc(-c3cc(Cl)c(F)c(OCc4ccccc4Cl)c3)c(=O)n(-c3cccnc3)c2)c(=O)[nH]c1=O [Compound 61]
- combination effect with EIDD-1931 (SARS-CoV-2 replicon [3]; combination of EIDD-1931 and compound 61, FIG. 6): synergistic effect
- inhibition of SARS-CoV-2 replication by serum and lung tissue extracts (SARS-CoV-2 replication): exhibited inhibition
- off-target effects [7]: no significant off-target effects
- inhibition of HERG ion channel (HERG ion channel): minimal inhibition
- aq. sol. [1, 9]: 116.5 ± 8.8 µg/mL
- CC50 (Vero E6 cells [8]): > 32.5 µM
- CC50 [6]: > 32.5 µM
- CC50 (in vitro): > 32 µM

Structure (SMILES): O=c1nc(NO)ccn1[C@@H]1O[C@H](CO)[C@@H](O)[C@H]1O [EIDD-1931, reference compound]
- IC50 (SARS-CoV-2 replicon [2]): 2.23 µM

Structure (SMILES): O=c1[nH]cc(-c2cc(-c3cc(Cl)c(F)c(OCc4ccccc4Cl)c3)c(=O)n(-c3cccnc3)c2)c(=O)[nH]1 [compound 43]
- aq. sol. [1, 9]: 21.8 ± 0.9 µg/mL
- CC50 (Vero E6 cells [8]): > 80 µM
- CC50 [6]: > 95 µM
- PAMPA permeability (PAMPA assay): 0.73 ± 0.05 10^−6 cm/s

Structure (SMILES): Cc1ocnc1COc1cc(Cl)cc(-c2cc(-c3ccccc3C#N)cn(-c3cccnc3)c2=O)c1 [compound 50]
- aq. sol. [1, 9]: 13.1 ± 0.3 µg/mL
- PAMPA permeability (PAMPA assay): 3.04 ± 0.09 10^−6 cm/s

Structure (SMILES): Cc1scnc1COc1cc(Cl)cc(-c2cc(-c3c[nH]c(=O)[nH]c3=O)cn(-c3cccnc3)c2=O)c1 [compound 51]
- CC50 (Vero E6 cells [8]): > 100 µM
- CC50 [6]: 22 µM

Structure (SMILES): Cn1cc(-c2cc(-c3cc(Cl)cc(OCC4CC4)c3)c(=O)n(-c3cccnc3)c2)c(=O)[nH]c1=O [compound 57]
- aq. sol. [1, 9]: 14.2 ± 0.7 µg/mL
- CC50 (Vero E6 cells [8]): 82 µM
- CC50 [6]: > 100 µM

Structure (SMILES): Cn1cc(-c2cc(-c3cc(Cl)cc(OCCC(F)(F)F)c3)c(=O)n(-c3cccnc3)c2)c(=O)[nH]c1=O [compound 60]
- aq. sol. [1, 9]: 57.0 ± 0.4 µg/mL
- CC50 (Vero E6 cells [8]): > 100 µM
- CC50 [6]: ~95 µM

Structure (SMILES): O=c1[nH]cc(-c2cc(-c3cc(Cl)cc(OCc4ocnc4C(F)(F)F)c3)c(=O)n(-c3cccnc3)c2)c(=O)[nH]1 [compound 62]
- CC50 (Vero E6 cells [8]): > 100 µM
- CC50 [6]: > 100 µM
- PAMPA permeability (PAMPA assay): 0.57 ± 0.09 10^−6 cm/s

Structure (SMILES): O=c1[nH]cc(-c2cc(-c3cc(Cl)cc(OCc4scnc4C(F)(F)F)c3)c(=O)n(-c3cccnc3)c2)c(=O)[nH]1 [compound 63]
- CC50 (Vero E6 cells [8]): > 100 µM
- CC50 [6]: > 100 µM

Structure (SMILES): Cn1cc(-c2cc(-c3cc(Cl)cc(OCc4scnc4C(F)(F)F)c3)c(=O)n(-c3cccnc3)c2)c(=O)[nH]c1=O [compound 64]
- aq. sol. [1, 9]: 24.8 ± 1.4 µg/mL
- CC50 (Vero E6 cells [8]): > 100 µM
- CC50 [6]: > 100 µM
- PAMPA permeability (PAMPA assay): 1.16 ± 0.32 10^−6 cm/s

Structure (SMILES): CCC(CC)COC(=O)[C@H](C)N[P@](=O)(OC[C@H]1O[C@@](C#N)(c2ccc3c(N)ncnn23)[C@H](O)[C@@H]1O)Oc1ccccc1 [remdesivir, reference compound]
- CC50 (Vero E6 cells [4]; [11]): 72 ± 28 µM
- CC50 [5, 12]: 41 ± 2 µM
